# From PubChem BioAssay AID1745844 (Carcinogenic Potency Database (CPDB), 2022)
# Tested on: rodent lifetime carcinogenesis bioassay, tumor incidence TD50
# Assay: chronic cancer bioassays in animals – CPDB, compiled studies (AID 1745844)
# Details: mouse, strain B6C3F1, inhaled
structure (smiles),measurement,setting,value
C=CC=C,TD50,"females, site: Harderian gland, lesion: adenocarcinoma + adenoma + adenoma, bilateral, dosed 83 weeks, study length 104 weeks",26.2 mg/kg/day
same,TD50,"females, site: Harderian gland, lesion: adenoma + adenoma, bilateral, dosed 83 weeks, study length 104 weeks",26.2 mg/kg/day
same,TD50,"females, site: Zymbal's gland, lesion: adenoma + carcinoma, dosed 83 weeks, study length 104 weeks",3540 mg/kg/day
same,TD50,"females, site: all sites + forestomach + Harderian gland + heart + liver + lung + mammary gland + ovary, lesion: histiocytic sarcoma + malignant lymphoma, mixed type + malignant lymphoma, lymphocytic type + malignant lymphoma, undifferenti, dosed 83 weeks, study length 104 weeks",6.79 mg/kg/day
same,TD50,"females, site: all sites + forestomach + heart + liver + lung + mammary gland + ovary, lesion: malignant lymphoma, NOS + squamous-cell papilloma + hemangiosarcoma + hepatocellular adenoma + hepatocellular carcinoma + alveolar, dosed 61 weeks, study length 61 weeks",53 mg/kg/day
same,TD50,"females, site: all sites, lesion: hemangioma + hemangiosarcoma, dosed 83 weeks, study length 104 weeks",35 mg/kg/day
same,TD50,"females, site: all sites, lesion: hemangiosarcoma, dosed 83 weeks, study length 104 weeks",44.2 mg/kg/day
same,TD50,"females, site: all sites, lesion: histiocytic sarcoma + malignant lymphoma, mixed type + malignant lymphoma, lymphocytic type + malignant lymphoma, undifferenti, dosed 83 weeks, study length 104 weeks",27.4 mg/kg/day
same,TD50,"females, site: all sites, lesion: histiocytic sarcoma, dosed 83 weeks, study length 104 weeks",125 mg/kg/day
same,TD50,"females, site: all sites, lesion: malignant lymphoma, NOS, dosed 61 weeks, study length 61 weeks",270 mg/kg/day
same,TD50,"females, site: all sites, lesion: malignant lymphoma, lymphocytic type, dosed 83 weeks, study length 104 weeks",74.9 mg/kg/day
same,TD50,"females, site: all sites, lesion: malignant lymphoma, mixed type + malignant lymphoma, lymphocytic type + malignant lymphoma, undifferentiated type + malignant, dosed 83 weeks, study length 104 weeks",35.2 mg/kg/day
same,TD50,"females, site: any site (literature study), lesion: several types, types named in the paper, dosed 61 weeks, study length 61 weeks",41.5 mg/kg/day
same,TD50,"females, site: any site (literature study), lesion: several types, types named in the paper, dosed 83 weeks, study length 104 weeks",6.28 mg/kg/day
same,TD50,"females, site: forestomach, lesion: papilloma, NOS + squamous-cell carcinoma + squamous-cell papilloma, dosed 61 weeks, study length 61 weeks",462 mg/kg/day
same,TD50,"females, site: forestomach, lesion: papilloma, NOS + squamous-cell papilloma, dosed 61 weeks, study length 61 weeks",483 mg/kg/day
same,TD50,"females, site: forestomach, lesion: squamous-cell carcinoma + squamous-cell papilloma, dosed 61 weeks, study length 61 weeks",396 mg/kg/day
same,TD50,"females, site: forestomach, lesion: squamous-cell carcinoma + squamous-cell papilloma, dosed 83 weeks, study length 104 weeks",83.9 mg/kg/day
same,TD50,"females, site: forestomach, lesion: squamous-cell carcinoma, dosed 83 weeks, study length 104 weeks",257 mg/kg/day
same,TD50,"females, site: forestomach, lesion: squamous-cell papilloma, dosed 61 weeks, study length 61 weeks",461 mg/kg/day
same,TD50,"females, site: forestomach, lesion: squamous-cell papilloma, dosed 83 weeks, study length 104 weeks",126 mg/kg/day
same,TD50,"females, site: heart + liver + subcutaneous tissue, lesion: hemangiosarcoma, dosed 61 weeks, study length 61 weeks",147 mg/kg/day
same,TD50,"females, site: heart, lesion: hemangiosarcoma, dosed 61 weeks, study length 61 weeks",283 mg/kg/day
same,TD50,"females, site: heart, lesion: hemangiosarcoma, dosed 83 weeks, study length 104 weeks",104 mg/kg/day
same,TD50,"females, site: kidney, lesion: tubule adenoma, dosed 83 weeks, study length 104 weeks",1060 mg/kg/day
same,TD50,"females, site: liver, lesion: hepatocellular adenoma + hepatocellular carcinoma + neoplastic nodule, dosed 61 weeks, study length 61 weeks",1170 mg/kg/day
same,TD50,"females, site: liver, lesion: hepatocellular adenoma + hepatocellular carcinoma + neoplastic nodule, dosed 83 weeks, study length 104 weeks",22.8 mg/kg/day
same,TD50,"females, site: liver, lesion: hepatocellular adenoma + hepatocellular carcinoma, dosed 61 weeks, study length 61 weeks",1170 mg/kg/day
same,TD50,"females, site: liver, lesion: hepatocellular adenoma + hepatocellular carcinoma, dosed 83 weeks, study length 104 weeks",22.8 mg/kg/day
same,TD50,"females, site: liver, lesion: hepatocellular adenoma, dosed 61 weeks, study length 61 weeks",1590 mg/kg/day
same,TD50,"females, site: liver, lesion: hepatocellular adenoma, dosed 83 weeks, study length 104 weeks",28.5 mg/kg/day
same,TD50,"females, site: liver, lesion: hepatocellular carcinoma, dosed 83 weeks, study length 104 weeks",50.5 mg/kg/day
same,TD50,"females, site: lung, lesion: alveolar/bronchiolar adenoma + alveolar/bronchiolar carcinoma + adenocarcinoma, dosed 83 weeks, study length 104 weeks",12.4 mg/kg/day
same,TD50,"females, site: lung, lesion: alveolar/bronchiolar adenoma + alveolar/bronchiolar carcinoma, dosed 61 weeks, study length 61 weeks",203 mg/kg/day
same,TD50,"females, site: lung, lesion: alveolar/bronchiolar adenoma + alveolar/bronchiolar carcinoma, dosed 83 weeks, study length 104 weeks",13.8 mg/kg/day
same,TD50,"females, site: lung, lesion: alveolar/bronchiolar adenoma, dosed 61 weeks, study length 61 weeks",259 mg/kg/day
same,TD50,"females, site: lung, lesion: alveolar/bronchiolar adenoma, dosed 83 weeks, study length 104 weeks",20.3 mg/kg/day
same,TD50,"females, site: lung, lesion: alveolar/bronchiolar carcinoma + adenocarcinoma, dosed 83 weeks, study length 104 weeks",23.9 mg/kg/day
same,TD50,"females, site: lung, lesion: alveolar/bronchiolar carcinoma, dosed 61 weeks, study length 61 weeks",227 mg/kg/day
same,TD50,"females, site: mammary gland, lesion: acinar-cell carcinoma, dosed 61 weeks, study length 61 weeks",1030 mg/kg/day
same,TD50,"females, site: mammary gland, lesion: adenoacanthoma, dosed 83 weeks, study length 104 weeks",87.7 mg/kg/day
same,TD50,"females, site: mammary gland, lesion: adenocarcinoma + adenoacanthoma + mixed tumor, malignant, dosed 83 weeks, study length 104 weeks",47.4 mg/kg/day
same,TD50,"females, site: mammary gland, lesion: adenocarcinoma, dosed 83 weeks, study length 104 weeks",93.3 mg/kg/day
same,TD50,"females, site: mammary gland, lesion: mixed tumor, malignant, dosed 83 weeks, study length 104 weeks",2710 mg/kg/day
same,TD50,"females, site: ovary, lesion: adenoma + mixed tumor, benign, dosed 83 weeks, study length 104 weeks",78.9 mg/kg/day
same,TD50,"females, site: ovary, lesion: adenoma, dosed 83 weeks, study length 104 weeks",217 mg/kg/day
same,TD50,"females, site: ovary, lesion: granulosa-cell carcinoma + granulosa-cell tumor, dosed 61 weeks, study length 61 weeks",370 mg/kg/day
same,TD50,"females, site: ovary, lesion: granulosa-cell carcinoma, dosed 61 weeks, study length 61 weeks",7580 mg/kg/day
same,TD50,"females, site: ovary, lesion: granulosa-cell tumor, benign + granulosa-cell tumor, bilateral, dosed 83 weeks, study length 104 weeks",98 mg/kg/day
same,TD50,"females, site: ovary, lesion: granulosa-cell tumor, benign + granulosa-cell tumor, malignant, dosed 83 weeks, study length 104 weeks",65.4 mg/kg/day
same,TD50,"females, site: ovary, lesion: granulosa-cell tumor, malignant, dosed 83 weeks, study length 104 weeks",198 mg/kg/day
same,TD50,"females, site: ovary, lesion: mixed tumor, benign, dosed 83 weeks, study length 104 weeks",202 mg/kg/day
same,TD50,"females, site: subcutaneous tissue, lesion: neurofibrosarcoma + sarcoma, dosed 83 weeks, study length 104 weeks",128 mg/kg/day
same,TD50,"females, site: subcutaneous tissue, lesion: sarcoma, dosed 83 weeks, study length 104 weeks",131 mg/kg/day
same,TD50,"males, site: Harderian gland, lesion: adenocarcinoma + adenocarcinoma, bilateral, dosed 13 weeks, study length 104 weeks",63.5 mg/kg/day
